Reference: PubChem BioAssay AID330 (DTP/NCI, 2004)
Values joined by “and” are separate entries in the source; they are usually repeats but may differ in a detail not shown here. Equal entries are not always repeated. Toxic doses and inconclusive results are not listed. Numbered stars: 1 amine (or outer) side, 2 acyl side, 3 side chain; on linkers, the order of the positions; unused ones are H or OH. Bridge positions count the residues as written; N and C are the ends. Square brackets hold non-standard residues; d marks the D form. Peptide text beside a SMILES is read from it. I, II: the chains in the order shown. * marks the point of attachment. ξ: configuration not given here. Quinaldoyl(3-OH,6-OMe) = COc1ccc2nc(C(=O)*)c(O)cc2c1; X12 = CCC(=O)OC1CC=NN([*:1])C1C(=O)[*:2]; X8 = CC(=O)OC1CC=NN([*:1])C1C(=O)[*:2]; ξNMeVal(3-OH) = CNC(C(=O)O)C(C)(C)O; Sar = CNCC(=O)O

Test system: P388 leukemia ip, CD2F1 mice, survival T/C
Test: NCI In Vivo Anticancer Drug Screen. Data for tumor model P388 Leukemia (intraperitoneal) in CD2F1 (CDF1) mice
Settings: endpoint: median survival time, higher = longer survival
Outline: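 Mice carrying the transplanted tumor received test compound or vehicle. Survival was recorded in each group, and the value is the treated-group measurement divided by that of the vehicle-treated control group.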

[1] = dose: 60.0 mg/kg/injection, schedule: Q01DX005 (ip), vehicle: saline with Tween-80
[2] = dose: 120.0 mg/kg/injection, schedule: Q01DX005 (ip), vehicle: saline with Tween-80
[3] = dose: 240.0 mg/kg/injection, schedule: Q01DX005 (ip), vehicle: saline with Tween-80
[4] = dose: 60.0 mg/kg/injection, schedule: Q01DX005 (ip), vehicle: Klucel (hydroxypropylcellulose) (HPC)
[5] = dose: 120.0 mg/kg/injection, schedule: Q01DX005 (ip), vehicle: Klucel (hydroxypropylcellulose) (HPC)
[6] = dose: 240.0 mg/kg/injection, schedule: Q01DX005 (ip), vehicle: Klucel (hydroxypropylcellulose) (HPC)
[7] = dose: 50.0 mg/kg/injection, schedule: Q01DX009 (ip), vehicle: saline with Tween-80
[8] = dose: 100.0 mg/kg/injection, schedule: Q01DX009 (ip), vehicle: saline with Tween-80
[9] = dose: 200.0 mg/kg/injection, schedule: Q01DX009 (ip), vehicle: saline with Tween-80

## O=C(O)c1ccc2c(c1Cl)C(=O)c1ccccc1C2=O
dose: 25.0 mg/kg/injection, schedule: Q04DX003 (ip), vehicle: Klucel (hydroxypropylcellulose) (HPC)
  T/C: 101 % of control
dose: 50.0 mg/kg/injection, schedule: Q04DX003 (ip), vehicle: Klucel (hydroxypropylcellulose) (HPC)
  T/C: 101 % of control
dose: 100.0 mg/kg/injection, schedule: Q04DX003 (ip), vehicle: Klucel (hydroxypropylcellulose) (HPC)
  T/C: 100 % of control

## COc1ccc2c(c1OC)C(C(C)=O)N1CCc3cc4c(cc3C1=C2)OCO4 (configuration not stated)
dose: 0.63 mg/kg/injection, schedule: Q01DX009 (ip), vehicle: distilled water + Tween-80
  T/C: 106 % of control
dose: 1.25 mg/kg/injection, schedule: Q01DX009 (ip), vehicle: distilled water + Tween-80
  T/C: 101 % of control
dose: 2.5 mg/kg/injection, schedule: Q01DX009 (ip), vehicle: distilled water + Tween-80
  T/C: 99 % of control
dose: 5.0 mg/kg/injection, schedule: Q01DX009 (ip), vehicle: distilled water + Tween-80
  T/C: 96 % of control
dose: 10.0 mg/kg/injection, schedule: Q01DX009 (ip), vehicle: distilled water + Tween-80
  T/C: 101 % of control
dose: 20.0 mg/kg/injection, schedule: Q01DX009 (ip), vehicle: distilled water + Tween-80
  T/C: 101 % of control

## CC(=O)OC1CC2CC(O)(C(=O)CO)CC2C2CCC3=CC(=O)CC3C(C)(O)C12 (configuration not stated)
[1]
  T/C: 100 % of control
[2]
  T/C: 93 % of control
[3]
  T/C: 93 % of control

## COc1ccc2nccc3c2c1NC(Cl)=C3
[4]
  T/C: 97 % of control
[5]
  T/C: 103 % of control
[6]
  T/C: 97 % of control

## CC(C)CC(NC(=O)OC(C)(C)C)C(=O)ON1C(=O)CCC1=O (configuration not stated)
dose: 50.0 mg/kg/injection, schedule: Q01DX005 (ip), vehicle: saline with Tween-80
  T/C: 111 % of control
dose: 100.0 mg/kg/injection, schedule: Q01DX005 (ip), vehicle: saline with Tween-80
  T/C: 111 % of control

## N#CC(C(=O)C(=O)Nc1cccc(C(F)(F)F)c1)c1cccc(Cl)c1 (configuration not stated)
[1]
  T/C: 105 % of control
[2]
  T/C: 112 % of control
[3]
  T/C: 103 % of control

## C=C1CC[C@H]2C(C)=CC[C@@H]3[C@H](OC(=O)[C@H]3CN(C)C)[C@@H]12
dose: 100.0 mg/kg/injection, schedule: Q01DX001 (ip), vehicle: saline
  T/C: 98 % of control
dose: 200.0 mg/kg/injection, schedule: Q01DX001 (ip), vehicle: saline
  T/C: 104 % of control
dose: 400.0 mg/kg/injection, schedule: Q01DX001 (ip), vehicle: saline
  T/C: 105 % of control

## CC(c1ccccc1)N1COc2ccc3ccccc3c2C1 (configuration not stated)
dose: 100.0 mg/kg/injection, schedule: Q04DX003 (ip), vehicle: saline with Tween-80
  T/C: 95 % of control
dose: 200.0 mg/kg/injection, schedule: Q04DX003 (ip), vehicle: saline with Tween-80
  T/C: 95 % of control
dose: 400.0 mg/kg/injection, schedule: Q04DX003 (ip), vehicle: saline with Tween-80
  T/C: 95 % of control

## O=C(O)c1nn(-c2ccccc2)c2c1CS(=O)(=O)c1ccccc1-2
dose: 100.0 mg/kg/injection, schedule: Q04DX002 (ip), vehicle: saline with Tween-80
  T/C: 100 % of control
dose: 200.0 mg/kg/injection, schedule: Q04DX002 (ip), vehicle: saline with Tween-80
  T/C: 106 % of control
dose: 400.0 mg/kg/injection, schedule: Q04DX002 (ip), vehicle: saline with Tween-80
  T/C: 104 % of control

## CCC(=O)OC1CC=NN2C(=O)C(NC(=O)c3nc4ccc(OC)cc4cc3O)COC(=O)C(C(C)(C)O)N(C)C(=O)CN(C)C(=O)CNC(=O)C3C(OC(C)=O)CC=NN3C(=O)C(NC(=O)c3nc4ccc(OC)cc4cc3O)COC(=O)C(C(C)(C)O)N(C)C(=O)CN(C)C(=O)CNC(=O)C12 (configuration not stated) (I: {Quinaldoyl(3-OH,6-OMe)}-S[X12]G[Sar][ξNMeVal(3-OH)] / II: {Quinaldoyl(3-OH,6-OMe)}-S[X8]G[Sar][ξNMeVal(3-OH)]; ester I:1-II:C, I:C-II:1; configuration not given here)
dose: 20.0 micrograms/kg/injection, schedule: Q01DX005 (ip), vehicle: DMSO
  T/C: 106 % of control
dose: 40.0 micrograms/kg/injection, schedule: Q01DX005 (ip), vehicle: DMSO
  T/C: 153 % of control
dose: 80.0 micrograms/kg/injection, schedule: Q01DX005 (ip), vehicle: DMSO
  T/C: 174 % of control
dose: 160.0 micrograms/kg/injection, schedule: Q01DX005 (ip), vehicle: DMSO
  T/C: 155 % of control

## c1ccc2cc3c(ccc4ccccc43)cc2c1
dose: 25.0 mg/kg/injection, schedule: Q04DX003 (ip), vehicle: other
  T/C: 99 % of control
[7]
  T/C: 100 % of control
dose: 50.0 mg/kg/injection, schedule: Q04DX003 (ip), vehicle: other
  T/C: 104 % of control
[8]
  T/C: 97 % of control
dose: 100.0 mg/kg/injection, schedule: Q04DX003 (ip), vehicle: other
  T/C: 99 % of control
[9]
  T/C: 103 % of control
dose: 200.0 mg/kg/injection, schedule: Q04DX003 (ip), vehicle: other
  T/C: 96 % of control
dose: 400.0 mg/kg/injection, schedule: Q04DX003 (ip), vehicle: other
  T/C: 96 % of control

## CCOc1c(Cc2ccccc2)c(=O)nc2c(-c3ccccc3)cncn12
dose: 30.0 mg/kg/injection, schedule: Q01DX005 (ip), vehicle: saline with Tween-80
  T/C: 101 % of control
[1]
  T/C: 86 % of control and 90 % of control
[2]
  T/C: 92 % of control
[3]
  T/C: 87 % of control

## COc1ccc(/C(=C/c2c(C(=O)O)oc3ccccc23)c2ccccc2)cc1
dose: 100.0 mg/kg/injection, schedule: Q01DX001 (ip), vehicle: saline with Tween-80
  T/C: 97 % of control
dose: 200.0 mg/kg/injection, schedule: Q01DX001 (ip), vehicle: saline with Tween-80
  T/C: 99 % of control

## CNC(=O)NC1NC(=O)N(C)C1=O (configuration not stated)
[7]
  T/C: 100 % of control
[8]
  T/C: 99 % of control
[9]
  T/C: 100 % of control

## CN(C)CN1C(=O)S/C(=C2\C(=O)N(CN(C)C)c3ccccc32)C1=O
dose: 30.0 mg/kg/injection, schedule: Q01DX005 (ip), vehicle: Klucel (hydroxypropylcellulose) (HPC)
  T/C: 118 % of control
[4]
  T/C: 120 % of control and 121 % of control
[5]
  T/C: 113 % of control
[6]
  T/C: 120 % of control

## Cc1c2ccncc2c(CN(CCO)CCO)c2c3ccccc3n(C)c12
dose: 5.0 mg/kg/injection, schedule: Q01DX005 (ip), vehicle: saline
  T/C: 103 % of control
dose: 10.0 mg/kg/injection, schedule: Q01DX005 (ip), vehicle: saline
  T/C: 100 % of control
dose: 20.0 mg/kg/injection, schedule: Q01DX005 (ip), vehicle: saline
  T/C: 90 % of control

## CCC1c2ccc3cc(OC)ccc3c2CCC1(C)C(=O)O (configuration not stated)
dose: 50.0 mg/kg/injection, schedule: Q01DX005 (ip), vehicle: Klucel (hydroxypropylcellulose) (HPC)
  T/C: 100 % of control
dose: 100.0 mg/kg/injection, schedule: Q01DX005 (ip), vehicle: Klucel (hydroxypropylcellulose) (HPC)
  T/C: 98 % of control
dose: 200.0 mg/kg/injection, schedule: Q01DX005 (ip), vehicle: Klucel (hydroxypropylcellulose) (HPC)
  T/C: 100 % of control

## COc1ccc(Cn2nnc(C(N)=O)c2NC=O)cc1
dose: 100.0 mg/kg/injection, schedule: Q01DX001 (ip), vehicle: Klucel (hydroxypropylcellulose) (HPC)
  T/C: 95 % of control
dose: 200.0 mg/kg/injection, schedule: Q01DX001 (ip), vehicle: Klucel (hydroxypropylcellulose) (HPC)
  T/C: 100 % of control
dose: 400.0 mg/kg/injection, schedule: Q01DX001 (ip), vehicle: Klucel (hydroxypropylcellulose) (HPC)
  T/C: 100 % of control

## CC(C(=O)O)c1ccc2c(c1)[nH]c1ccc(Cl)cc12 (configuration not stated)
dose: 6.25 mg/kg/injection, schedule: Q01DX009 (ip), vehicle: saline with Tween-80
  T/C: 106 % of control
dose: 12.5 mg/kg/injection, schedule: Q01DX009 (ip), vehicle: saline with Tween-80
  T/C: 106 % of control
dose: 25.0 mg/kg/injection, schedule: Q01DX009 (ip), vehicle: saline with Tween-80
  T/C: 105 % of control

## OC(c1cccnc1)C(CCc1ccccn1)c1ccccn1 (configuration not stated)
dose: 100.0 mg/kg/injection, schedule: Q04DX003 (ip), vehicle: saline
  T/C: 102 % of control
dose: 200.0 mg/kg/injection, schedule: Q04DX003 (ip), vehicle: saline
  T/C: 101 % of control
dose: 400.0 mg/kg/injection, schedule: Q04DX003 (ip), vehicle: saline
  T/C: 91 % of control

## O=C(O)Cc1c(-c2ccccc2)n[nH]c1-c1[nH]nc(-c2ccccc2)c1CC(=O)O
dose: 60.0 mg/kg/injection, schedule: Q01DX005 (ip), vehicle: saline
  T/C: 95 % of control
dose: 120.0 mg/kg/injection, schedule: Q01DX005 (ip), vehicle: saline
  T/C: 95 % of control
dose: 240.0 mg/kg/injection, schedule: Q01DX005 (ip), vehicle: saline
  T/C: 104 % of control
